The target in one test is T1, SYK (Homo sapiens, UniProt P43405).
T1 construct: purchased Eurofins DiscoverX (contract assay service)
As to the kind of experiment: Eurofins DiscoverX SYK enzymatic radiometric assay. The class given is biochemical. The note with it: for IC50: Km value for ATP, 9-pt dose-response.

Another test addresses T2, SYK(KD)-NL or NL-SYK(KD) (Homo sapiens, UniProt P43405).
T2 construct: N- and C-terminally-tagged NL SYK kinase domain constructs lacking the tandem SH2 domains were prepared; expressed in transfected cells; host or cells: HEK293
As to the kind of experiment: NanoBRET tracer optimization with SYK kinase domain only constructs. The class given is cell-based. The note with it: with or without digitonin, N- or C-terminal NL. On the procedure: HEK293 cells were transfected with constructs of SYK (WT, KD, and GoF variants) tagged with NL on the N- or C-terminus as previously described ([Wells et al., 2021]). Constructs for NanoBRET measurements of SYK(WT) (NL-SYK(WT) and SYK(WT)-NL) and SYK GoF variants (SYK(S550Y)-NL, SYK(S550F)-NL, SYK(P342T)-NL, SYK(M450I)-NL, and SYK(A353T)-NL) were kindly provided by Promega. NL orientations used in the respective assays are indicated. Cells were plated in 96-well tissue culture-treated plates (Corning, #3917) at a cell density of 2 × 10^5 cells/mL, with a total volume of 100 μL per well in DMEM +10% FBS. After 16 h, the media was aspirated from the plate and replaced with room temperature Opti-MEM without phenol red (Gibco, #11058021), 100 μL in no tracer wells; 95 μL in tracer only wells; 90 μL in no tracer wells and with digitonin treated plates, 90 μL in no tracer wells; 85 μL in tracer only wells; 80 μL in no tracer wells. Plates were incubated for 25 min at room temperature if digitonin was added or for 2 h at 37°C in 5% CO2 for the intact cell NanoBRET assay. NanoBRET plates were read after the addition of 50 μL of a stock solution (3X) containing NanoBRET NanoGlo substrate (Promega, #N2161), extracellular NanoLuc inhibitor (Promega, #N2161) when reading assay plates performed in intact live cells, and Opti-MEM without phenol red (Gibco, #11058021). For intact live cells in a 96-well plate, the 3X stock solution was prepared with 30 μL of NanoBRET NanoGlo substrate, 10 μL of extracellular NanoLuc inhibitor, and 4,960 μL of Opti-MEM without phenol red. For digitonin permeabilized live cells in a 96-well plate, the 3X stock solution was prepared with 30 μL of NanoBRET NanoGlo substrate and 4,970 μL of Opti-MEM without phenol red. Raw milliBRET units (mBU) were read on a GloMax Discover system (Promega) with a donor emission wavelength of 450 nm and an acceptor emission wavelength of 600 nm. mBU were calculated by dividing the acceptor emission values (600 nm) by the donor emission values (450 nm). For NanoBRET studies with SYK, background corrected mBU were calculated by subtracting the no tracer wells from the tracer-containing wells and multiplying by 1,000. Where the results are reported as a BRET fold change, this is the BRET ratio for the vehicle-treated sample divided by BRET for the inhibitor-treated sample.
HEK293 cells were transfected with constructs of SYK(WT) or SYK(KD) tagged with NL on the C- or N-terminus and SYK GoF variants tagged with NL on the C-terminus. Tracer 8 (20X) was prepared from a 400 μM stock solution in DMSO with tracer dilution buffer (Promega, #N291B) and 20% DMSO, with a final assay plate concentration of 1% DMSO. […]
Background: Bioluminescence resonance energy transfer reports proximity on the nanometre scale.

For a further test, the target named is T3, SYK(WT)-NL (Homo sapiens, UniProt P43405).
T3 construct: SYK tracers enable BRET with full-length SYK(WT) after digitonin permeabilization; host or cells: HEK293
As to the kind of experiment: NanoBRET assay in digitonin permeabilized HEK293 cells, SYK(WT)-NL. Type of test: cell-based. The note with it: C-terminal NL fusion, tracer 0.5, 1, 2 μM.

Test [1] deals with FGR, MLK1, YES, FLT3, PAK5, LYN, SRC, and LCK. The note with it: ref Coffey et al., 2012, Spurgeon et al., 2013, cited from earlier work.

Bounds are passed on as bounds.

Method for SYK(WT)-NL: We performed NanoBRET tracer optimization to determine if the SYK tracers could effectively generate a BRET signal. […] To enable the NanoBRET assay using tracer 8 with cells permeabilized by digitonin, a tracer dose–response study was performed for each SYK(GoF) variant and SYK(WT) (Figure 3A), followed by tracer titration experiments (Figure 3B; Supplementary Figure S3). […] Initially, we determined the EC50 of tracer 8 for each SYK(GoF) variant and SYK(WT). […] Plates were incubated for 25 min at room temperature if digitonin was added or for 2 h at 37°C in 5% CO2 for the intact cell NanoBRET assay. […] For intact live cells in a 96-well plate, the 3X stock solution was prepared with 30 μL of NanoBRET NanoGlo substrate, 10 μL of extracellular NanoLuc inhibitor, and 4,960 μL of Opti-MEM without phenol red. For digitonin permeabilized live cells in a 96-well plate, the 3X stock solution was prepared with 30 μL of NanoBRET NanoGlo substrate and 4,970 μL of Opti-MEM without phenol red. Raw milliBRET units (mBU) were read on a GloMax Discover system (Promega) with a donor emission wavelength of 450 nm and an acceptor emission wavelength of 600 nm. mBU were calculated by dividing the acceptor emission values (600 nm) by the donor emission values (450 nm). For NanoBRET studies with SYK, background corrected mBU were calculated by subtracting the no tracer wells from the tracer-containing wells and multiplying by 1,000.
HEK293 cells were transfected with constructs of SYK(WT) or SYK(KD) tagged with NL on the C- or N-terminus and SYK GoF variants tagged with NL on the C-terminus. Tracer 8 (20X) was prepared from a 400 μM stock solution in DMSO with tracer dilution buffer (Promega, #N291B) and 20% DMSO, with a final assay plate concentration of 1% DMSO. 5 μL of 8 (20X) was added to each well, with exception of the no tracer control wells, with final plate concentrations of 0.5, 1, and 2 μM. 10 μL of digitonin (Fisher, 10X, 500 μg/mL) was added to specific wells to permeabilize the cells. The 10X digitonin stock was prepared by diluting a 40X DMSO solution of digitonin with room temperature Opti-MEM without phenol red, for a final assay plate concentration of 1% DMSO. SYK inhibitor stock solutions of MRL-SYKi (10X) were prepared from 10 mM DMSO stock solutions with room temperature Opti-MEM without phenol red, for final assay plate concentrations of 10 μM. Plates were incubated for 25 min at room temperature if digitonin was added or for 2 h at 37°C in 5% CO2 for the intact cell NanoBRET assay. Two technical replicates were plotted in a bar chart with the standard deviation represented as error bars on Graphpad Prism.

As for `O=C(CCc1ccc2n1[B-](F)(F)[N+]1=C(c3ccc[nH]3)C=CC1=C2)NCCOCCOCCOCCC(=O)N1CCN(c2ccc(Nc3nc(-c4ccc5cn[nH]c5c4)cn4ccnc34)cc2)CC1` [Tracer 2], half-maximal inhibition at SYK (IC50) required 2.4 µM. In addition, the BRET signal entry at SYK(KD)-NL or NL-SYK(KD) is reported as “did not generate a BRET signal”. The “BRET signal (background subtracted)” value on SYK(WT)-NL is 4 mBU.
At SYK, `Cn1ncc2ccc(-c3cn4ccnc4c(Nc4ccc(N5CCNCC5)cc4)n3)cc21` [Tracer 3] showed an IC50 of 0.097 µM.
In the case of `Cn1ncc2ccc(-c3cn4ccnc4c(Nc4ccc(N5CCN(C(=O)CCc6ccc7n6[B-](F)(F)[N+]6=C(c8ccc[nH]8)C=CC6=C7)CC5)cc4)n3)cc21` [Tracer 4], the IC50 against SYK was greater than 10 µM. For the same compound, the BRET signal result on SYK(KD)-NL or NL-SYK(KD) is “did not generate a BRET signal”. The “BRET signal (background subtracted)” value on SYK(WT)-NL is on record as “did not generate a BRET signal”.
Consider `CC1(C)Oc2ccc(Nc3nc(Nc4cccc(OCC(=O)NCCOCCOCCOCCNC(=O)CCc5ccc6n5[B-](F)(F)[N+]5=C(c7ccc[nH]7)C=CC5=C6)c4)ncc3F)nc2NC1=O` [Tracer 5], for which, on SYK, half-maximal inhibition (IC50) required 1.1 µM. Besides, the BRET signal entry on SYK(KD)-NL or NL-SYK(KD) is “did not generate a BRET signal”. Moreover, the “BRET signal (background subtracted)” value on SYK(WT)-NL was greater than 10 mBU.
For `CC1(C)Oc2ccc(Nc3nc(Nc4cccc(OCC(=O)NCCNC(=O)CCc5ccc6n5[B-](F)(F)[N+]5=C(c7ccc[nH]7)C=CC5=C6)c4)ncc3F)nc2NC1=O` [Tracer 6] the same measures were 1.4 µM, “did not generate a BRET signal” and greater than 10 mBU.
As for `Cc1cc(Nc2nccc(C)n2)cc(-c2cnc([C@@]3(O)CC[C@H](C(=O)NCCOCCOCCOCCNC(=O)CCc4ccc5n4[B-](F)(F)[N+]4=C(c6ccc[nH]6)C=CC4=C5)C(C)(C)C3)s2)c1` [Tracer 7], 0.47 µM corresponded to half-maximal inhibition on SYK (IC50). In addition, the “decrease in potency compared to the parent inhibitor MRL-SYKi” value on SYK (ratio of enzymatic IC50) turned out to be 15.6 fold. Also, at SYK(WT)-NL, the “BRET signal (background subtracted)” value was greater than 10 mBU.
For `NC(=O)c1cnc(N[C@@H]2CCCC[C@@H]2N)nc1Nc1cccc(-n2nccn2)c1` [Tracer P505-15], the “inhibition of eight kinases” value in test [1] (at 300 nM) is reported as “greater than 80%”. Also, the IC50 in test [1] (dose-response, read-out: enzymatic IC50 of the closest off-target) was 0.081 µM. Also, the “closest off-target less potent compared to SYK” value in test [1] is 81 fold.

For orientation: IC50 means the point on the concentration scale where inhibition reaches its midpoint.

(Values after PMC13089524, “Development of SYK NanoBRET cellular target engagement assays for gain–of–function variants” (Frontiers in chemical biology, 2024).)
